# Read-outs that look alike come from different tables or passages of the source.
# Key:
# [1] = test system: Onchocerca lienalis microfilariae; experiment: O. lienalis microfilariae 5-day motility assay; conditions: 120 h
# [2] = test system: Onchocerca gutturosa adult male worms; experiment: O. gutturosa adult worm MTT/formazan viability assay; conditions: 120 h
# [3] = test system: Onchocerca gutturosa adult male worms; experiment: O. gutturosa adult male worm 5-day motility assay; conditions: for activity against adult O. gutturosa: metabolites of oxfendazole, less potent compared to oxfendazole
# Litomosoides sigmodontis [4] = test system: Litomosoides sigmodontis; design: method as in Reddy 1983 (Ref. 15); conditions: L3 (mite), Mastomys natalensis, patent phase, necropsy 43 days p.t., ref Reddy 1983 (Ref. 15), cited from earlier work
# Brugia pahangi [5] = test system: Brugia pahangi; design: method as in Devaney 1985 (Ref. 8); conditions: 50L3, balb/c, SC 10 or 50 mg/kg 5 cons. days, 4 days p.i., necropsy 3-4 weeks p.t.; ref Devaney 1985 (Ref. 8); cited from earlier work
# Brugia pahangi [6] = conditions: L3, cats, patent phase, necropsy 42 days p.t., ref Denham 1980 (Ref. 5), cited from earlier work
# Brugia pahangi [7] = test system: Brugia pahangi; design: method as in Reddy 1983 (Ref. 15); conditions: L3 (SC), Mastomys natalensis, patent phase, necropsy 43 days p.t., ref Reddy 1983 (Ref. 15), cited from earlier work
# Brugia pahangi [8] = conditions: jirds, cited from earlier work
# Litomosoides sigmodontis [9] = test system: Litomosoides sigmodontis; design: method as in Shibuya 1979 (Ref. 12); conditions: cotton rat, ref Shibuya 1979 (Ref. 12), cited from earlier work
# Breinlia booliati = test system: Breinlia booliati; design: method as in Mak 1981 (Ref. 7); conditions: 100L3 (SC), rats, SC 10mg/kg 5 cons. days, patent phase, necropsy 4 weeks p.t.; ref Mak 1981 (Ref. 7); cited from earlier work
# [10] = test system: L. sigmodontis microfilariae; experiment: L. sigmodontis microfilariae-injected naïve mice; type: in vivo, Litomosoides sigmodontis; conditions: single intraperitoneal injection 5 mg/kg
# Description: To investigate the in vivo efficacy of oxfendazole on microfilariae, microfilariae were isolated from peripheral blood of L. sigmodontis-infected cotton rats according to Chandrashekar et al. (1984) using a sucrose percoll gradient. 100,000 microfilariae were injected into the tail vein of naïve mice as previously described. Microfilariae-injected mice were treated with a commercial formulation of oxfendazole (Dolthene) twice daily with 2 x 12.5 mg/kg per os. As a positive control, additional mice were treated with a single intraperitoneal dose of ivermectin (5 mg/kg) in DMSO/PEG400/H20dest with a ratio of 1:7:2 according to Halliday et al.. Control animals received no treatment.
compound,measurement,setting,value
"Cl.Cl.NCCS[As](SCCN)c1ccc(Nc2nc(N)nc(N)n2)cc1 [Immiticide, melarsomine dihydrochloride]",effect on microfilariae motility,[1]; concentrations equal or above 3.1·10^−6 M,completely inhibited microfilariae motility
same,MTT Reduction (%),[2]; 1.25 x 10^-5 M,91%
same,MTT Reduction (%),[2]; 1.9 x 10^-7 M,51%
same,MTT Reduction (%),[2]; 3.1 x 10^-6 M,94%
same,MTT Reduction (%),[2]; 7.8 x 10^-7 M,79%
same,Motility Reduction (%),"[3]; 1.25 x 10^-5 M, 48 h",100%
same,Motility Reduction (%),"[3]; 1.25 x 10^-5 M, 72 h",100%
same,Motility Reduction (%),"[3]; 1.25 x 10^-5 M, 96 h",100%
same,Motility Reduction (%),"[3]; 1.25 x 10^-5 M, 120 h",100%
same,Motility Reduction (%),"[3]; 1.9 x 10^-7 M, 24 h",4%
same,Motility Reduction (%),"[3]; 1.9 x 10^-7 M, 48 h",9%
same,Motility Reduction (%),"[3]; 1.9 x 10^-7 M, 72 h",33%
same,Motility Reduction (%),"[3]; 1.9 x 10^-7 M, 96 h",44%
same,Motility Reduction (%),"[3]; 1.9 x 10^-7 M, 120 h",44%
same,Motility Reduction (%),"[3]; 3.1 x 10^-6 M, 48 h",100%
same,Motility Reduction (%),"[3]; 3.1 x 10^-6 M, 72 h",100%
same,Motility Reduction (%),"[3]; 3.1 x 10^-6 M, 96 h",100%
same,Motility Reduction (%),"[3]; 3.1 x 10^-6 M, 120 h",100%
same,Motility Reduction (%),"[3]; 7.8 x 10^-7 M, 24 h",49%
same,Motility Reduction (%),"[3]; 7.8 x 10^-7 M, 48 h",74%
same,Motility Reduction (%),"[3]; 7.8 x 10^-7 M, 72 h",93%
same,Motility Reduction (%),"[3]; 7.8 x 10^-7 M, 120 h",100%
CCCSc1ccc2nc(NC(=O)OC)[nH]c2c1 [albendazole],Reduction of worm burden,Litomosoides sigmodontis [4]; SC 100mg/kg 5 cons. days,100%
same,Reduction of worm burden,Litomosoides sigmodontis [4]; per os 150mg/kg 5 cons. days,0%
same,Reduction of worm burden,Brugia pahangi [5],100%
same,activity against microfilariae compared to oxfendazole,[1],even less active
same,MTT Reduction (%),[2]; 1.25 x 10^-5 M,28%
same,MTT Reduction (%),[2]; 3.1 x 10^-6 M,19%
same,MTT Reduction (%),[2]; 5.0 x 10^-5 M,47%
same,MTT Reduction (%),[2]; 7.8 x 10^-7 M,18%
same,Motility Reduction (%),"[3]; 1.25 x 10^-5 M, 24 h",10%
same,Motility Reduction (%),"[3]; 1.25 x 10^-5 M, 48 h",12%
same,Motility Reduction (%),"[3]; 1.25 x 10^-5 M, 72 h",27%
same,Motility Reduction (%),"[3]; 1.25 x 10^-5 M, 96 h",38%
same,Motility Reduction (%),"[3]; 1.25 x 10^-5 M, 120 h",40%
same,Motility Reduction (%),"[3]; 3.1 x 10^-6 M, 24 h",10%
same,Motility Reduction (%),"[3]; 3.1 x 10^-6 M, 48 h",5%
same,Motility Reduction (%),"[3]; 3.1 x 10^-6 M, 72 h",16%
same,Motility Reduction (%),"[3]; 3.1 x 10^-6 M, 96 h",26%
same,Motility Reduction (%),"[3]; 3.1 x 10^-6 M, 120 h",40%
same,Motility Reduction (%),"[3]; 5.0 x 10^-5 M, 24 h",10%
same,Motility Reduction (%),"[3]; 5.0 x 10^-5 M, 48 h",12%
same,Motility Reduction (%),"[3]; 5.0 x 10^-5 M, 72 h",29%
same,Motility Reduction (%),"[3]; 5.0 x 10^-5 M, 96 h",40%
same,Motility Reduction (%),"[3]; 5.0 x 10^-5 M, 120 h",47%
same,Motility Reduction (%),"[3]; 7.8 x 10^-7 M, 24 h",10%
same,Motility Reduction (%),"[3]; 7.8 x 10^-7 M, 48 h",9%
same,Motility Reduction (%),"[3]; 7.8 x 10^-7 M, 72 h",13%
same,Motility Reduction (%),"[3]; 7.8 x 10^-7 M, 96 h",33%
same,Motility Reduction (%),"[3]; 7.8 x 10^-7 M, 120 h",33%
same,Reduction of worm burden,Brugia pahangi [6]; SC 25mg/kg 5 cons. days,50%
same,Reduction of worm burden,Brugia pahangi [6]; SC 50mg/kg 5 cons. days,100%
same,Reduction of worm burden,Brugia pahangi [6]; SC 100mg/kg 5 cons. days,100%
same,Reduction of worm burden,Brugia pahangi [7]; SC 100mg/kg 5 cons. days,100%
same,Reduction of worm burden,Brugia pahangi [7]; per os 150mg/kg 5 cons. days,50%
same,Reduction of worm burden,"Brugia pahangi [8]; 15Ad (IP), SC 50mg/kg 5 cons. days, necropsy 4-5 weeks p.t., ref Denham 1980 (Ref. 5)",100%
same,Reduction of worm burden,"Brugia pahangi [8]; 15Ad (IP), SC 25-12.5mg/kg 5 cons. days, necropsy 4-5 weeks p.t., ref Denham 1980 (Ref. 5)",80-90%
same,Reduction of worm burden,"Brugia pahangi [8]; 15Ad (IP), SC 50-25mg/kg 5 cons. days, 4 days p.i., necropsy 5 weeks p.t., ref Surin 1990 (Ref. 11)",100%
same,Reduction of worm burden,"Brugia pahangi [8]; 15Ad (IP), SC <6,25mg/kg 5 cons. days, necropsy 4-5 weeks p.t., ref Denham 1980 (Ref. 5)",<30%
same,Reduction of worm burden,"Brugia pahangi [8]; 50L3 (IP), SC 50-25mg/kg 5 cons. days, 70 days p.i., necropsy 5 weeks p.t., ref Surin 1990 (Ref. 11)",90%
COC(=O)Nc1nc2ccc(S(=O)(=O)c3ccccc3)cc2[nH]1 [fenbendazole sulfone],activity against adult O. gutturosa,[3],active
COC(=O)Nc1nc2ccc(Sc3ccccc3)cc2[nH]1 [fenbendazole],activity against adult O. gutturosa,[3],active
"COC(=O)Nc1nc2ccc(C(=O)c3ccccc3)cc2[nH]1 [meb, mebendazole]",Reduction of worm burden,Litomosoides sigmodontis [4]; SC 100mg/kg 5 cons. days,100%
same,Reduction of worm burden,Litomosoides sigmodontis [4]; per os 150mg/kg 5 cons. days,70%
same,Reduction of worm burden,"Litomosoides sigmodontis [9]; IP 1mg/kg 3 cons.days, patent phase, necropsy 4 weeks p.t.",50%
same,Reduction of worm burden,"Litomosoides sigmodontis [9]; IP 10mg/kg 3 cons.days, patent phase, necropsy 4 weeks p.t.",100%
same,Reduction of worm burden,"Litomosoides sigmodontis [9]; IP 100mg/kg x1, patent phase, necropsy 4 weeks p.t.",100%
same,Reduction of worm burden,"Litomosoides sigmodontis [9]; IT 0.1mg/kg 3 cons.days, patent phase, necropsy 5 weeks p.t.",0%
same,Reduction of worm burden,"Litomosoides sigmodontis [9]; IT 1mg/kg 3 cons.days, patent phase, necropsy 5 weeks p.t.",100%
same,Reduction of worm burden,"Litomosoides sigmodontis [9]; IT 10mg/kg 3 cons.days, patent phase, necropsy 3 weeks p.t.",20%
same,Reduction of worm burden,"Litomosoides sigmodontis [9]; IT 10mg/kg 3 cons.days, patent phase, necropsy 5 weeks p.t.",100%
same,Reduction of worm burden,"Litomosoides sigmodontis [9]; IT 10mg/kg 4 cons.days, patent phase, necropsy 4 weeks p.t.",0%
same,Reduction of worm burden,"Litomosoides sigmodontis [9]; IT 25mg/kg x1, patent phase, necropsy 5 weeks p.t.",75%
same,Reduction of worm burden,"Litomosoides sigmodontis [9]; IT 100mg/kg x1, patent phase, necropsy 5 weeks p.t.",85%
same,Reduction of worm burden,Brugia pahangi [7]; SC 100mg/kg 5 cons. days,100%
same,Reduction of worm burden,Brugia pahangi [7]; per os 150mg/kg 5 cons. days,0%
same,Reduction of worm burden,Breinlia booliati,83%
same,Reduction of worm burden,"Brugia pahangi [8]; 15Ad (IP), SC 25-12,5mg/kg 5 cons. days, 4 days p.i., necropsy 5 weeks p.t., ref Surin 1990 (Ref. 11)",100%
same,Reduction of worm burden,"Brugia pahangi [8]; 50L3 (IP), SC 25mg/kg 5 cons. days, 70 days p.i., necropsy 5 weeks p.t., ref Surin 1990 (Ref. 11)",97%
same,Reduction of worm burden,"Brugia pahangi [8]; 50L3 (IP), SC 12,5mg/kg 5 cons. days, 70 days p.i., necropsy 5 weeks p.t., ref Surin 1990 (Ref. 11)",78.5%
same,Reduction of worm burden,"Brugia pahangi [8]; 100L3 (IP), SC 50mg/kg 5 cons.days, 3 months p.i., necropsy 15 days p.t., ref Denham 1978 (Ref. 3)",70%
same,Reduction of worm burden,"Brugia pahangi [8]; 100L3 (IP), SC 50mg/kg 5 cons.days, 3 months p.i., necropsy 20 days p.t., ref Denham 1978 (Ref. 3)",100%
same,Reduction of worm burden,"Brugia pahangi [8]; 100L3 (IP), SC 50mg/kg 5 cons.days, 3 months p.i., necropsy 30 days p.t., ref Denham 1978 (Ref. 3)",100%
ivermectin,microfilaremia,[10]; by 6 h after treatment,statistically significant reduction of microfilaremia
same,microfilaremia,[10]; from day four after treatment until end of experiment,microfilariae negative

# — PMC7365463, “Oxfendazole mediates macrofilaricidal efficacy against the filarial nematode Litomosoides sigmodontis in vivo and inhibits Onchocerca spec. motility in vitro” (PLoS Neglected Tropical Diseases, 2020)
